From PubChem BioAssay (NCI)
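Briefly, cells in 96-well plates were exposed to five compound concentrations for 48 h, and endpoints were estimated by linear interpolation. GI50 marks 50% less growth. TGI is the concentration that stops growth completely.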

What was measured:
Assay in all cases: NCI tumour cell line growth inhibition, 48 h
KM12 colon = test system: KM12 colon
HT29 colon = test system: HT29 colon
LOX IMVI melanoma = test system: LOX IMVI melanoma
T-47D breast = test system: T-47D breast
SK-MEL-28 melanoma = test system: SK-MEL-28 melanoma
OVCAR-4 ovarian = test system: OVCAR-4 ovarian
SF-539 CNS = test system: SF-539 CNS
HOP-92 NSCLC = test system: HOP-92 NSCLC
MCF7 breast = test system: MCF7 breast
SF-268 CNS = test system: SF-268 CNS
UACC-62 melanoma = test system: UACC-62 melanoma
DU-145 prostate = test system: DU-145 prostate
SF-295 CNS = test system: SF-295 CNS
COLO 205 colon = test system: COLO 205 colon
NCI-H460 lung = test system: NCI-H460 lung
OVCAR-5 ovarian = test system: OVCAR-5 ovarian
HCC-2998 colon = test system: HCC-2998 colon
MDA-MB-435 = test system: MDA-MB-435
SK-OV-3 ovarian = test system: SK-OV-3 ovarian
NCI/ADR-RES ovarian = test system: NCI/ADR-RES ovarian
786-0 renal = test system: 786-0 renal
IGROV1 ovarian = test system: IGROV1 ovarian
SW-620 colon = test system: SW-620 colon
HCT-116 colon = test system: HCT-116 colon
U251 CNS = test system: U251 CNS
HCT-15 colon = test system: HCT-15 colon
RXF 393 renal = test system: RXF 393 renal

Cc1cccc(Cn2cc(CO)c3cnccc32)c1
TGI (KM12 colon): > 100 µM | GI50 (HT29 colon): 67.2 µM | TGI (HT29 colon): > 100 µM | GI50 (LOX IMVI melanoma): 67.3 µM | TGI (LOX IMVI melanoma): > 100 µM | GI50 (T-47D breast): 47.2 µM | TGI (T-47D breast): > 100 µM | GI50 (SK-MEL-28 melanoma): > 100 µM | TGI (SK-MEL-28 melanoma): > 100 µM | GI50 (OVCAR-4 ovarian): 78.3 µM | TGI (OVCAR-4 ovarian): > 100 µM | GI50 (SF-539 CNS): > 100 µM | TGI (SF-539 CNS): > 100 µM | GI50 (HOP-92 NSCLC): 7.88 µM | TGI (HOP-92 NSCLC): 79.4 µM | GI50 (MCF7 breast): 51.3 µM | TGI (MCF7 breast): > 100 µM | GI50 (SF-268 CNS): > 100 µM | TGI (SF-268 CNS): > 100 µM | GI50 (UACC-62 melanoma): 75.4 µM | TGI (UACC-62 melanoma): > 100 µM | GI50 (DU-145 prostate): > 100 µM | TGI (DU-145 prostate): > 100 µM | GI50 (SF-295 CNS): 12.4 µM | TGI (SF-295 CNS): 76.7 µM | GI50 (COLO 205 colon): > 100 µM | TGI (COLO 205 colon): > 100 µM | GI50 (NCI-H460 lung): 57.5 µM | TGI (NCI-H460 lung): > 100 µM | GI50 (OVCAR-5 ovarian): > 100 µM | TGI (OVCAR-5 ovarian): > 100 µM | GI50 (HCC-2998 colon): > 100 µM | TGI (HCC-2998 colon): > 100 µM | GI50 (MDA-MB-435): 49.7 µM | TGI (MDA-MB-435): > 100 µM | GI50 (SK-OV-3 ovarian): > 100 µM | TGI (SK-OV-3 ovarian): > 100 µM | GI50 (NCI/ADR-RES ovarian): 55.2 µM | TGI (NCI/ADR-RES ovarian): > 100 µM | GI50 (786-0 renal): > 100 µM | TGI (786-0 renal): > 100 µM | GI50 (IGROV1 ovarian): 44.8 µM | TGI (IGROV1 ovarian): > 100 µM | GI50 (SW-620 colon): > 100 µM | TGI (SW-620 colon): > 100 µM | GI50 (HCT-116 colon): 36.8 µM | TGI (HCT-116 colon): > 100 µM | GI50 (U251 CNS): 62.5 µM | TGI (U251 CNS): > 100 µM | GI50 (HCT-15 colon): > 100 µM | TGI (HCT-15 colon): > 100 µM | GI50 (RXF 393 renal): > 100 µM | TGI (RXF 393 renal): > 100 µM
